Patent US12240862B2, “Inhibitors of peptidylarginine deiminases” (Gilead Sciences, Inc., priority 2020, dated 2025)

Target: T1, human PAD4 (Homo sapiens, UniProt Q9UM07)
T1 construct: human PAD4 (NM_012387), A2P663, was PCR amplified; His-SUMO (N, cleaved yes); made in house; host or cells: E. coli BL21(DE3)
Assay: In vitro PAD4 BAEE biochemical assay
Conditions: human PAD4, BAEE substrate; 5 nM PAD4, 2 mM calcium chloride, 3 mM BAEE; geometric mean of multiple experiments
How it was run: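 Tag-free recombinant hPAD4 (5 nM), 2 mM CaCl2, 3 mM BAEE, 50 mM MOPS pH 7.6, 2 mM DTT; 30 min compound preincubation, 2 h reaction, all 25 °C. EDTA quench; ammonia read via o-phthalaldehyde amine coupling, 1 h.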

T1 sequence (Q9UM07 2-663): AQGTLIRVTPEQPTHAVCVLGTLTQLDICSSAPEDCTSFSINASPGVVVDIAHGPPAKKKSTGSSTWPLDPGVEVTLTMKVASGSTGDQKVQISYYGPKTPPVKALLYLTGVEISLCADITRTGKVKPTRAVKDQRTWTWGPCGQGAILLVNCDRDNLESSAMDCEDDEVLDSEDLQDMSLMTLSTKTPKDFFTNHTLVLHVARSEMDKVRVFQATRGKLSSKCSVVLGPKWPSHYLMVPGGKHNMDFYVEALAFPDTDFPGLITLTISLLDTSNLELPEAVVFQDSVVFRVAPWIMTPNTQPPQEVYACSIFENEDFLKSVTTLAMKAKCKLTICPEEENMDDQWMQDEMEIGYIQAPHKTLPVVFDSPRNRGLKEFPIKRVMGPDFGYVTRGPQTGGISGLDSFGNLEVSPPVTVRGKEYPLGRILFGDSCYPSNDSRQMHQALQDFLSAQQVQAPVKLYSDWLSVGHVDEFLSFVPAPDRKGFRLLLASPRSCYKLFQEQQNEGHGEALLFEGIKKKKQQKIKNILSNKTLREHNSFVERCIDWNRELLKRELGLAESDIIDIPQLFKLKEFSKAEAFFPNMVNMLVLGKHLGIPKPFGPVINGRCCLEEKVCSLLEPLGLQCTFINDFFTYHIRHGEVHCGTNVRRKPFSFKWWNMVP

Row | IC50 [nM] | SMILES
1 | 6510 | COc1cc(C(=O)N2[C@H]3CC(C)[C@@H]2[C@H](N)C3)cc2nc(-c3cc4ccc(N(C(F)F)S(C)(=O)=O)nc4n3CC3CC3)c(C)n12 (stereo partly drawn) [Example 351, N-[2-[7-[(1R,2R,4S)-2-amino-6-methyl-7-azabicyclo[2.2.1]heptane-7-carbonyl]-5-methoxy-3-methyl-imidazo[1,2-a]pyridin-2-yl]-1-(cyclopropylmethyl)pyrrolo [2,3-b]pyridin-6-yl]-N-(difluoromethyl) methanesulfonamide]
2 | 943 | COc1cc(C(=O)N2CCC[C@@H](N)C2)cc2nc(-c3cc4ccc(N(C(F)F)S(C)(=O)=O)nc4n3CC3CC3)c(CC(C)C)n12 [Example 430, ~{N}-[2-[7-[(3~{R})-3-aminopiperidine-1-carbonyl]-5-methoxy-3-(2-methylpropyl)imidazo [1,2-a]pyridin-2-yl]-1-(cyclopropylmethyl)pyrrolo [2,3-b]pyridin-6-yl]-~{N}-(difluoromethyl) methanesulfonamide]
3 | 21.8 | COc1cc(C(=O)N2[C@H]3CC[C@@H]2[C@H](N)C3)cc2nc(-c3cc4ccc(N5CCOCCS5(=O)=O)nc4n3CC3CC3)c(C)n12 [Example 451, [(1~{R},2~{R},4~{S})-2-amino-7-azabicyclo [2.2.1]heptan-7-yl]-[2-[1-(cyclopropylmethyl)-6-(4,4-dioxo-1,4,5-oxathiazepan-5-yl)pyrrolo [2,3-b]pyridin-2-yl]-5-methoxy-3-methylimidazo[1,2-a]pyridin-7-yl]methanone]
4 | 427 | COc1cc(C(=O)N2CCC[C@@H](N)C2)cc2nc(-c3cc4ccc(-c5cccnc5C)nc4n3CC3CC3)c(C)n12 [Example 604, [(3~{R})-3-aminopiperidin-1-yl]-[2-[1-(cyclopropylmethyl)-6-(2-methylpyridin-3-yl)pyrrolo[2,3-b]pyridin-2-yl]-5-methoxy-3-methylimidazo[1,2-a]pyridin-7-yl]methanone]
5 | 715 | COc1cc(C(=O)N2CCC[C@@H](N)C2)cc2nc(-c3cc4ccc(C(C)n5cc(N)cn5)nc4n3CC3CC3)c(C)n12 (some centres unmarked) [Example 547, [(3~{R})-3-aminopiperidin-1-yl]-[2-[6-[1-(4-aminopyrazol-1-yl)ethyl]-1-(cyclopropylmethyl)pyrrolo[2,3-b]pyridin-2-yl]-5-methoxy-3-methylimidazo[1,2-a]pyridin-7-yl]methanone]
6 | 65.6 | COc1cc(C(=O)N2[C@H]3CC[C@@H]2[C@H](N)C3)cc2nc(-c3cc4ccc(C(C)Cc5nnc(C)o5)nc4n3CC3CC3)c(C)n12 (some centres unmarked) [Example 516, [(1~{R},2~{R},4~{S})-2-amino-7-azabicyclo [2.2.1]heptan-7-yl]-[2-[1-(cyclopropylmethyl)-6-[1-(5-methyl-1,3,4-oxadiazol-2-yl)propan-2-yl]pyrrolo[2,3-b]pyridin-2-yl]-5-methoxy-3-methylimidazo[1,2-a]pyridin-7-yl]methanone]

Further lines, the molecule ahead of its results:

Row | SMILES | IC50 [nM]
7 | COc1cc(C(=O)N(C)C)cc2nc(-c3cc4ccc([C@@H](C)N(C)C(=O)c5ccccc5)nc4n3CC3CC3)c(C)n12 [Example 184, 2-[6-[(1~{R})-1-[benzoyl (methyl)amino]ethyl]-1-(cyclopropylmethyl)pyrrolo [2,3-b]pyridin-2-yl]-5-methoxy-~{N},~{N},3-trimethylimidazo[1,2-a] pyridine-7-carboxamide] | 17700
8 | COc1cc(C(=O)N2[C@H]3CC[C@@H]2[C@H](N)C3)cc2nc(-c3cc4ccc([C@@H](C)NC(=O)c5ccccc5)nc4n3CC3CC3)c(C3CC3)n12 [Example 142, ~{N}-[(1~{R})-1-[2-[7-[(1~{R},2~{R},4~{S})-2-amino-7-azabicyclo[2.2.1]heptane-7-carbonyl]-3-cyclopropyl-5-methoxyimidazo[1,2-a]pyridin-2-yl]-1-(cyclopropylmethyl)pyrrolo [2,3-b]pyridin-6-yl]ethyl] benzamide] | 121
9 | COc1cc(C(=O)N2CCC[C@@H](N)C2)cc2nc(-c3cc4ccc(C(NC(C)=O)C(C)C)nc4n3CC3CC3)c(C)n12 (some centres unmarked) [Example 195, ~{N}-[1-[2-[7-[(3~{R})-3-aminopiperidine-1-carbonyl]-5-methoxy-3-methylimidazo [1,2-a]pyridin-2-yl]-1-(cyclopropylmethyl)pyrrolo [2,3-b]pyridin-6-yl]-2-methylpropyl]acetamide] | 519
10 | COc1cc(C(=O)N2C[C@H]3CC[C@@H]2[C@@H]3N)cc2nc(-c3cc4ccc([C@@H](C)Nc5ncccn5)nc4n3CC3CC3)c(C)n12 [Example 266, ((1R,4R,7R)-7-amino-2-azabicyclo[2.2.1]heptan-2-yl)(2-(1-(cyclopropylmethyl)-6-((R)-1-(pyrimidin-2-ylamino)ethyl)-1H-pyrrolo[2,3-b]pyridin-2-yl)-5-methoxy-3-methylimidazo [1,2-a]pyridin-7-yl) methanone] | 341
11 | COc1cc(C(=O)N2[C@H]3CC[C@@H]2[C@H](N)C3)cc2nc(-c3cc4ccc([C@@H](C)NC(=O)C(C)(O)C5CC5)nc4n3CC3CC3)c(C)n12 (some centres unmarked) [Example 92, ~{N}-[(1~{R})-1-[2-[7-[(1~ {R},2~{R},4~{S})-2-amino-7-azabicyclo[2.2.1]heptane-7-carbonyl]-5-methoxy-3-methylimidazo [1,2-a]pyridin-2-yl]-1-(cyclopropylmethyl)pyrrolo [2,3-b]pyridin-6-yl]ethyl]-2-cyclopropyl-2-hydroxypropanamide] | 59.7
12 | COc1cc(C(=O)N2[C@H]3CC[C@@H]2[C@H](N)C3)cc2nc(-c3cc4ccc([C@@H](C)NC(=O)N5CC(C)(C(=O)O)C5)nc4n3CC3CC3)c(C)n12 [Example 230, 1-[[(1~{R})-1-[2-[7-[(1~{R},2~{R},4~{S})-2-amino-7-azabicyclo[2.2.1]heptane-7-carbonyl]-5-methoxy-3-methylimidazo [1,2-a]pyridin-2-yl]-1-(cyclopropylmethyl)pyrrolo [2,3-b]pyridin-6-yl]ethyl]carbamoyl]-3-methylazetidine-3-carboxylic acid] | 70
13 | COc1cc(C(=O)N2[C@H]3CC[C@@H]2[C@H](N)C3)cc2nc(-c3cc4ccc([C@@H](C)NC(=O)[C@H]5[C@@H]6CC(F)(F)C[C@@H]65)nc4n3CC3CC3)c(C)n12 [Example 8, (1~{R},5~{S})-~{N}-[(1~{R})-1-[2-[7-[(1~{R}, 2~{R},4~{S})-2-amino-7-azabicyclo[2.2.1]heptane-7-carbonyl]-5-methoxy-3-methylimidazo [1,2-a]pyridin-2-yl]-1-(cyclopropylmethyl)pyrrolo[2,3-b]pyridin-6-yl]ethyl]-3,3-difluorobicyclo[3.1.0] hexane-6-carboxamide] | 144
14 | COc1cc(C(=O)N2[C@H]3CC[C@@H]2[C@H](N)C3)cc2nc(-c3cc4ccc([C@@H](C)NC(=O)N5CC(O)(C(F)(F)F)C5)nc4n3CC3CC3)c(C)n12 [Example 197, ~{N}-[(1~{R})-1-[2-[7-[(1~{R},2~{R},4~{S})-2-amino-7-azabicyclo[2.2.1]heptane-7-carbonyl]-5-methoxy-3-methylimidazo [1,2-a]pyridin-2-yl]-1-(cyclopropylmethyl)pyrrolo [2,3-b]pyridin-6-yl]ethyl]-3-hydroxy-3-(trifluoromethyl)azetidine-1-carboxamide] | 41.3
